Data on nine compounds can be found in patent EP4144838A1, “ORGANISMS PRODUCING LESS CROTONIC ACID” (Global Bioenergies, priority 2021, dated 2023).

The test system of one assay is TaFdcV. Kind of assay: Cycloadduct formation with TaFdcV followed by UV-Vis spectroscopy. Conditions: for adduct formation / binding, reversibility after desalting: UV-Vis spectrum before and after a desalting step. It is filed as binding, Trichoderma atroviride.
In assay [1] the target is E. coli deoxyribose-phosphate aldolase (Escherichia coli, UniProt P0A6L0). Conditions: Racker et al. 1951; Jennewein et al. 2006; cited from earlier work.
E. coli deoxyribose-phosphate aldolase, sequence (P0A6L0 whole entry): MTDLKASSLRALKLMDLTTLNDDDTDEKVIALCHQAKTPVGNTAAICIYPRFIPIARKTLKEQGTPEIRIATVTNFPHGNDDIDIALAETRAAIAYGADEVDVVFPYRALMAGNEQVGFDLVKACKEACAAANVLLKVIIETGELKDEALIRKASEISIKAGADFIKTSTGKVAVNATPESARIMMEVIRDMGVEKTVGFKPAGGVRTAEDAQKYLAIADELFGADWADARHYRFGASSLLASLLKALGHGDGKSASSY
The test system of a further assay is TaFdc. The experiment in a line: Adduct formation with TaFdc wild-type followed by UV-Vis spectroscopy. Conditions: UV-Vis spectrum before and after a desalting step.

As to `CC#CC(=O)O` [2-butynoic acid], in the assay with TaFdcV, the “adduct formation / binding, reversibility after desalting” value (shortened to “adduct formation / binding”) is given as “a covalent inhibitory adduct is formed”. Consider `OC(O)C(Cl)(Cl)Cl` [chloral hydrate], for which, in assay [1], the “inhibition of E. coli deoxyribose-phosphate aldolase” value is given as “inhibit”. Regarding `O=CCCl` [chloroacetaldehyde], the “inhibition of E. coli deoxyribose-phosphate aldolase” value in assay [1] is recorded as “efficiently inhibit”. Take `C/C=C/C(=O)O` [crotonic acid]: the “inhibition of the enzyme ferulic acid decarboxylase (FDC)” value in the assay with TaFdcV (FDC variant evolved to decarboxylate 3-methylcrotonic acid, FIG.2) is given as “irreversible inhibitor”. Also, in the assay on TaFdcV, the “adduct formation / binding” value is “a covalent inhibitory adduct is formed”. Turning to `CCC/C=C/C(=O)O` [hexenoic acid, trans-2-hexenoic acid], the “adduct formation / binding” value in the assay on TaFdc and with TaFdcV was “irreversibly binds” each time.

Regarding `NO` [hydroxylamine], in assay [1], the “inhibition of E. coli deoxyribose-phosphate aldolase” value is given as “inhibit”. On to `CCCCCCCCO` [octanol], for which, in assay [1], the “inhibition of E. coli deoxyribose-phosphate aldolase” value is on record as “inhibit”.

On to `CCC=O` [propionaldehyde], for which the “inhibition of E. coli deoxyribose-phosphate aldolase” value in assay [1] is recorded as “inhibit”.

On to pentenoic acid, for which the “adduct formation / binding” value with TaFdc and with TaFdcV was “irreversibly binds” each time.
